We go through one compound from publication PMC9816194, “Use of the head-twitch response to investigate the structure–activity relationships of 4-thio-substituted 2,5-dimethoxyphenylalkylamines” (Psychopharmacology, 2022).

Assay [1] deals with male C57BL/6 J mice. The assay can be described thus: Head-twitch response (HTR), magnetometer coil recording. It is filed as in vivo. The following applies: for HTR Counts (Mean ± SEM): 30 min; for ED50: Mus musculus, 0.5 h, HTR, IP, 30 min recording, male C57BL/6 J mice. As to the method:
Male C57BL/6 J mice (Jackson Laboratory, Bar Harbor, ME) were housed in a vivarium at the University of California San Diego (UCSD), which is an AAALAC-approved animal facility that complies with Federal and State requirements for care and treatment of laboratory animals. The mice (6–8 weeks old) were housed in a climate-controlled room with a reversed light-cycle (lights on at 19:00 h, off at 07:00 h) up to 4 animals per cage. Food and water were provided ad libitum, except during behavioral testing which occurred between 10:00 and 18:00 h. All experiments were conducted according to NIH guidelines and were approved by the UCSD animal care committee.
Head movement was recorded using a head-mounted magnet and a magnetometer coil (Halberstadt and Geyer [2013]). Briefly, mice were anesthetized, a small incision was made in the scalp, and a neodymium magnet was attached to the dorsal surface of the cranium using dental cement. Following a 1–2-week recovery period, behavioral experiments were conducted in a well-lit room with at least 7 days between sessions to avoid any carryover effects. Mice were treated with vehicle or test compound and then placed in a glass cylinder surrounded by a magnetometer coil and activity was recorded for 30 min. All test substances were administered IP dissolved in saline using an injection volume of 5 mL/kg. Coil voltage was filtered (5–10 kHz lowpass), digitized (20 kHz sampling rate), and saved to disk using a Powerlab/8SP with LabChart v 7.3.2 (ADInstruments, Colorado Springs, CO). To detect head twitches, events in the recordings were converted into scalograms using a wavelet transform and then the images were classified using a multistage approach combining the deep convolutional neural network (CNN) ResNet-50 with a support vector machine (SVM) algorithm (Halberstadt [2020]). HTR counts were analyzed using a one-way Welch analysis of variance (ANOVA). Post hoc pairwise comparisons were performed using Dunnett’s test. […] Median effective doses (ED50 values) and 95% confidence intervals were calculated using nonlinear regression (Prism ver. 9.0.2, GraphPad Software Inc, San Diego, CA, USA).

Assay [2] concerns humans. The conditions noted are these: p.o.; ref Shulgin and Shulgin 1991; Trachsel et al. 2013; cited from earlier work.
Assay [3] deals with rats. On the set-up: method as in Eshleman et al. 2014; Fantegrossi et al. 2005. The conditions noted are these: rats trained to discriminate LSD or DMT; ref Eshleman et al. 2014; Fantegrossi et al. 2005; cited from earlier work.
Assay [4] relates to rats. On the set-up: method as in Khorana et al. 2004; Li et al. 2010, 2008. The following applies: ref Khorana et al. 2004, Li et al. 2010, 2008; cited from earlier work.
The test system of assay [5] is monkeys. Also on record: method as in Khorana et al. 2004; Li et al. 2010, 2008. The following applies: ref Khorana et al. 2004, Li et al. 2010, 2008; cited from earlier work.
Assay [6] relates to mice. The conditions noted are these: ref Fantegrossi et al. 2005, cited from earlier work.
Assay [7] concerns the target human 5-HT2A receptor (Homo sapiens, UniProt P28223). On the set-up: expressed in transfected cells; host or cells: HEK 293 (transient), membrane preparations. The following applies: read-out: 5-HT2A Ki; [3H]ketanserin; ref Luethi et al. (2018); cited from earlier work.

Like-named read-outs stand apart in the source and are kept apart here.

Sequence of human 5-HT2A receptor (P28223 whole entry): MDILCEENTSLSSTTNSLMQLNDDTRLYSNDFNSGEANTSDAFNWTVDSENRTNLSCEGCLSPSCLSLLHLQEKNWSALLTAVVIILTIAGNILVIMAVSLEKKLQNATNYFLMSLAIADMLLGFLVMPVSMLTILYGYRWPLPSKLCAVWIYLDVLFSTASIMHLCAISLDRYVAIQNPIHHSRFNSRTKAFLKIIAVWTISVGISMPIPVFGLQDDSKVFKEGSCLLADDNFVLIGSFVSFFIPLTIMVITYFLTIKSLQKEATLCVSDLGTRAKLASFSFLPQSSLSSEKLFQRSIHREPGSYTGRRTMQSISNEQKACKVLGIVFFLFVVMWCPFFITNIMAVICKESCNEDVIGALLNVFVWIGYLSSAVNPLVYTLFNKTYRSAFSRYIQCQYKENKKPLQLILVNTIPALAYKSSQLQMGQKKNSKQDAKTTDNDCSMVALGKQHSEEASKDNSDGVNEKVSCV

In general, Ki refers to the equilibrium dissociation constant of an inhibitor or competing ligand from its target. Regarding `CCCSc1cc(OC)c(CCN)cc1OC.Cl` [Compound 2C-T-7, 2,5-dimethoxy-4-n-propylthiophenethylamine hydrochloride], the “HTR Counts (Mean ± SEM)” value worked out at 11.8 ± 1.3 in assay [1] (0.1 mg/kg IP), 18.4 ± 3.5 in assay [1] (0.3 mg/kg IP), 70.2 ± 10.6 in assay [1] (1 mg/kg IP) and 58.6 ± 9.7 in assay [1] (3 mg/kg IP). The values for the ED50 in assay [1] (read-out: ED50 µmol/kg (95% CI)) and in assay [1] (read-out: ED50 mg/kg (95% CI)) were 2.12 µmol/kg and 0.62 mg/kg, respectively. Also, the “maximum number of head twitches (mean ± SEM)” value in assay [1] (during the 30-min assessment period) is 70.2 ± 10.6. For the same compound, the “Human active dose range” value in assay [2] is 10 to 30 mg. The “substitution for training drug (in words)” value in assay [3] is given as “partial generalization”. Besides, the “effects in DOM-trained animals (in words)” value in assay [4] and in assay [5] was “hallucinogen-like effects” in each case. In assay [6] (mice pretreated with M100907), the “HTR after pretreatment with 5-HT2A antagonist M100907 (in words)” value is given as “blocked”. Besides, in assay [6] (mice), the “induction of HTR (in words)” value is “induce the head-twitch response”. In addition, the Ki in assay [7] is 5.3 nM.
